Laboratory results reported in PubChem BioAssay (NCI).
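Five concentrations, 48 hours, 96-well plates. At the GI50, growth is halved. TGI denotes the concentration required for complete inhibition of growth.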

Legend:
Assay in all cases: NCI tumour cell line growth inhibition, 48 h
786-0 renal = tested on: 786-0 renal
DMS 114 small cell lung = tested on: DMS 114 small cell lung
HT29 colon = tested on: HT29 colon
M19-MEL melanoma = tested on: M19-MEL melanoma
NCI-H522 lung = tested on: NCI-H522 lung
SNB-75 CNS = tested on: SNB-75 CNS
SNB-78 CNS = tested on: SNB-78 CNS
UACC-62 melanoma = tested on: UACC-62 melanoma
MDA-MB-435 = tested on: MDA-MB-435
PC-3 prostate = tested on: PC-3 prostate
T-47D breast = tested on: T-47D breast
HOP-18 NSCLC = tested on: HOP-18 NSCLC

COC(=O)C1CC(c2ccc(OC)c(OC)c2)OC1=O (mixture of isomers)
TGI (786-0 renal): > 100 µM | TGI (DMS 114 small cell lung): > 100 µM | TGI (HT29 colon): > 100 µM | TGI (M19-MEL melanoma): > 100 µM | TGI (NCI-H522 lung): > 100 µM | TGI (SNB-75 CNS): > 100 µM | TGI (SNB-78 CNS): > 100 µM | TGI (UACC-62 melanoma): > 100 µM

Cn1c(I)c(C#C[Si](C)(C)C)c(=O)n(C(=O)c2ccccc2)c1=O
GI50 (786-0 renal): 3.49 µM | TGI (786-0 renal): 11.7 µM | GI50 (HT29 colon): 3.32 µM | TGI (HT29 colon): 15.8 µM | GI50 (MDA-MB-435): 3.42 µM | TGI (MDA-MB-435): 13.4 µM | GI50 (NCI-H522 lung): 4.19 µM | TGI (NCI-H522 lung): 8.99 µM | GI50 (PC-3 prostate): 3.52 µM | TGI (PC-3 prostate): 13.5 µM | GI50 (SNB-75 CNS): 4.2 µM | TGI (SNB-75 CNS): 20.5 µM | GI50 (T-47D breast): 2.03 µM | TGI (T-47D breast): 5.91 µM | GI50 (UACC-62 melanoma): 4.51 µM | TGI (UACC-62 melanoma): 17 µM

CC1=NN(c2cccc(Cl)c2)C(=O)/C1=C\c1cn(CC(O)CN2CCCCC2)c2ccccc12 (centres undefined)
GI50 (786-0 renal): 7.46 µM | TGI (786-0 renal): 20.8 µM | GI50 (HT29 colon): 2.02 µM | TGI (HT29 colon): 4.57 µM | GI50 (MDA-MB-435): 1.89 µM | TGI (MDA-MB-435): 3.74 µM | GI50 (NCI-H522 lung): 10.9 µM | TGI (NCI-H522 lung): 26.5 µM | GI50 (PC-3 prostate): 9.81 µM | TGI (PC-3 prostate): 26.1 µM | GI50 (SNB-75 CNS): 7.75 µM | TGI (SNB-75 CNS): 21.1 µM | GI50 (T-47D breast): 15.8 µM | TGI (T-47D breast): 36.2 µM | GI50 (UACC-62 melanoma): 2.17 µM | TGI (UACC-62 melanoma): 4.9 µM

COc1ccc(-c2ccc(CC(=O)O)cc2)cc1OC
TGI (786-0 renal): > 100 µM | TGI (DMS 114 small cell lung): > 100 µM | TGI (HT29 colon): > 100 µM | TGI (M19-MEL melanoma): > 100 µM | TGI (NCI-H522 lung): > 100 µM | TGI (SNB-75 CNS): > 100 µM | TGI (SNB-78 CNS): > 100 µM | TGI (UACC-62 melanoma): > 100 µM

N#Cc1nc(CCc2nc(C#N)c(N)o2)oc1N
TGI (786-0 renal): > 10 µM | TGI (HT29 colon): > 10 µM | TGI (MDA-MB-435): > 10 µM | TGI (NCI-H522 lung): > 10 µM | TGI (PC-3 prostate): > 10 µM | TGI (SNB-75 CNS): > 10 µM | TGI (T-47D breast): > 10 µM | TGI (UACC-62 melanoma): > 10 µM

COc1cccc2c1C(=O)c1c(O)c3c(c(O)c1C2=O)C[C@@](O)(C(C)=O)CC3OC1CC(OC2CC(N)C(O)C(C)O2)C(O)C(C)O1 (some centres undefined)
TGI (786-0 renal): > 100 µM | TGI (HT29 colon): > 100 µM | TGI (MDA-MB-435): > 100 µM | TGI (NCI-H522 lung): > 100 µM | TGI (PC-3 prostate): > 100 µM | TGI (SNB-75 CNS): 85.7 µM | TGI (T-47D breast): > 100 µM | TGI (UACC-62 melanoma): > 100 µM

COc1cc(O)ccc1C(=S)SC
TGI (786-0 renal): > 100 µM | TGI (HT29 colon): > 100 µM | TGI (MDA-MB-435): > 100 µM | TGI (NCI-H522 lung): > 100 µM | TGI (PC-3 prostate): > 100 µM | TGI (SNB-75 CNS): > 100 µM | TGI (T-47D breast): > 100 µM | TGI (UACC-62 melanoma): > 100 µM

O=C(Nc1n[nH]c2cc(-c3cc(F)ccc3F)ccc12)C1CC1
GI50 (786-0 renal): > 25 µM | TGI (786-0 renal): > 25 µM | GI50 (HT29 colon): 9.42 µM | TGI (HT29 colon): > 25 µM | GI50 (MDA-MB-435): 4.56 µM | TGI (MDA-MB-435): 21.5 µM | GI50 (NCI-H522 lung): 9.15 µM | TGI (NCI-H522 lung): > 25 µM | GI50 (PC-3 prostate): 17.6 µM | TGI (PC-3 prostate): > 25 µM | GI50 (SNB-75 CNS): > 15.8 µM | TGI (SNB-75 CNS): > 25 µM | GI50 (T-47D breast): 11.8 µM | TGI (T-47D breast): > 25 µM | GI50 (UACC-62 melanoma): 19.5 µM | TGI (UACC-62 melanoma): > 25 µM

c1cnc2c(c1)-n1cccc1C1(CCCCC1)NN2
TGI (786-0 renal): > 100 µM | TGI (DMS 114 small cell lung): > 100 µM | TGI (HOP-18 NSCLC): > 100 µM | TGI (HT29 colon): > 100 µM | TGI (NCI-H522 lung): > 100 µM | TGI (SNB-75 CNS): > 100 µM

Cc1cc2c(c(C(=O)O)c1C)-c1cccc(Cl)c1C2=O
TGI (786-0 renal): > 100 µM | TGI (DMS 114 small cell lung): > 100 µM | TGI (HT29 colon): > 100 µM | TGI (M19-MEL melanoma): > 100 µM | TGI (NCI-H522 lung): > 100 µM | TGI (SNB-75 CNS): > 100 µM | TGI (SNB-78 CNS): > 100 µM | TGI (UACC-62 melanoma): > 100 µM

CCN(CC)C(=S)SSC(C)C
GI50 (786-0 renal): 17.3 µM | TGI (786-0 renal): 31.7 µM | GI50 (HT29 colon): 14.8 µM | TGI (HT29 colon): 29.8 µM | GI50 (MDA-MB-435): 16.1 µM | TGI (MDA-MB-435): 49.5 µM | GI50 (NCI-H522 lung): 0.0295 µM | TGI (NCI-H522 lung): 1.34 µM | GI50 (PC-3 prostate): 14.1 µM | TGI (PC-3 prostate): 29.2 µM | GI50 (SNB-75 CNS): 15.8 µM | TGI (SNB-75 CNS): 37.6 µM | GI50 (T-47D breast): 14.2 µM | TGI (T-47D breast): 33.7 µM | GI50 (UACC-62 melanoma): 16.7 µM | TGI (UACC-62 melanoma): 35.4 µM

Cn1c(COC(=O)NCCn2ccnc2)nc2c(N3CCOCC3)nc(-c3ccccc3)nc21
GI50 (786-0 renal): 0.72 µM | TGI (786-0 renal): 2.1 µM | GI50 (HT29 colon): 0.372 µM | TGI (HT29 colon): 1.47 µM | GI50 (MDA-MB-435): 0.694 µM | TGI (MDA-MB-435): 2.08 µM | GI50 (NCI-H522 lung): 0.352 µM | TGI (NCI-H522 lung): 1.56 µM | GI50 (PC-3 prostate): 0.751 µM | TGI (PC-3 prostate): 2.14 µM | GI50 (SNB-75 CNS): 0.759 µM | TGI (SNB-75 CNS): 2.15 µM | GI50 (T-47D breast): 1.43 µM | TGI (T-47D breast): 4.17 µM | GI50 (UACC-62 melanoma): 1.23 µM | TGI (UACC-62 melanoma): 2.5 µM

Oc1ccc(Cl)cc1C=Nc1cnc2ccccc2c1
TGI (786-0 renal): > 100 µM | TGI (HT29 colon): > 100 µM | TGI (MDA-MB-435): > 100 µM | TGI (NCI-H522 lung): > 100 µM | TGI (PC-3 prostate): > 88.4 µM | TGI (SNB-75 CNS): > 87.6 µM | TGI (T-47D breast): 51.3 µM | TGI (UACC-62 melanoma): > 100 µM

COc1cc(C)c2c(c1)CN1CN2Cc2cc(OC)cc(C)c21
TGI (786-0 renal): > 100 µM | TGI (DMS 114 small cell lung): 75.1 µM | TGI (HT29 colon): > 100 µM | TGI (M19-MEL melanoma): > 100 µM | TGI (NCI-H522 lung): > 100 µM | TGI (SNB-75 CNS): 46.3 µM | TGI (SNB-78 CNS): > 100 µM | TGI (UACC-62 melanoma): 79 µM

Cc1ccccc1NC(=O)CSc1nnc(-c2ccc(N=Cc3ccc(Cl)cc3)cc2)o1
TGI (786-0 renal): > 100 µM | TGI (DMS 114 small cell lung): > 100 µM | TGI (HOP-18 NSCLC): > 100 µM | TGI (HT29 colon): > 100 µM | TGI (M19-MEL melanoma): > 100 µM | TGI (SNB-75 CNS): > 100 µM | TGI (SNB-78 CNS): > 100 µM | TGI (UACC-62 melanoma): > 100 µM

Cc1ccc(/C(=N/Nc2ccc([N+](=O)[O-])cc2)Sc2cc(Cl)c(C)cc2S(N)(=O)=O)cc1
GI50 (786-0 renal): 1.82 µM | TGI (786-0 renal): 3.37 µM | GI50 (HT29 colon): 1.31 µM | TGI (HT29 colon): 3.12 µM | GI50 (MDA-MB-435): 1.73 µM | TGI (MDA-MB-435): 3.89 µM | GI50 (NCI-H522 lung): 4.96 µM | TGI (NCI-H522 lung): > 28.2 µM | GI50 (PC-3 prostate): 1.79 µM | TGI (PC-3 prostate): 4.47 µM | GI50 (SNB-75 CNS): 2.06 µM | TGI (SNB-75 CNS): 3.94 µM | GI50 (T-47D breast): 3.14 µM | TGI (T-47D breast): > 23.2 µM | GI50 (UACC-62 melanoma): 1.73 µM | TGI (UACC-62 melanoma): 3.64 µM

Cn1c(COC(=O)NCCc2ccccn2)nc2c(N3CCOCC3)nc(Cl)nc21
GI50 (786-0 renal): 1.34 µM | TGI (786-0 renal): 2.95 µM | GI50 (HT29 colon): 1.17 µM | TGI (HT29 colon): 3.17 µM | GI50 (MDA-MB-435): 1.46 µM | TGI (MDA-MB-435): 3.46 µM | GI50 (NCI-H522 lung): 1.35 µM | TGI (NCI-H522 lung): 3.16 µM | GI50 (PC-3 prostate): 1.64 µM | TGI (PC-3 prostate): 3.56 µM | GI50 (SNB-75 CNS): 1.38 µM | TGI (SNB-75 CNS): 11.8 µM | GI50 (T-47D breast): 1.65 µM | TGI (T-47D breast): 3.67 µM | GI50 (UACC-62 melanoma): 1.65 µM | TGI (UACC-62 melanoma): 3.29 µM

COc1ccc(-n2cc(-c3ccc(OC)c(OC)c3)[nH]c2=O)cc1
GI50 (786-0 renal): > 100 µM | TGI (786-0 renal): > 100 µM | GI50 (HT29 colon): > 100 µM | TGI (HT29 colon): > 100 µM | GI50 (MDA-MB-435): > 100 µM | TGI (MDA-MB-435): > 100 µM | GI50 (NCI-H522 lung): > 100 µM | TGI (NCI-H522 lung): > 100 µM | GI50 (PC-3 prostate): > 100 µM | TGI (PC-3 prostate): > 100 µM | GI50 (SNB-75 CNS): 12.1 µM | TGI (SNB-75 CNS): 99.3 µM | GI50 (T-47D breast): > 100 µM | TGI (T-47D breast): > 100 µM | GI50 (UACC-62 melanoma): > 100 µM | TGI (UACC-62 melanoma): > 100 µM

Cc1n[nH]c2ccccc2c1=O
TGI (786-0 renal): > 100 µM | TGI (HT29 colon): > 100 µM | TGI (MDA-MB-435): > 100 µM | TGI (NCI-H522 lung): > 100 µM | TGI (PC-3 prostate): > 100 µM | TGI (SNB-75 CNS): > 100 µM | TGI (T-47D breast): > 100 µM | TGI (UACC-62 melanoma): > 100 µM
